Measurements as given in patent publication US11760744B2, “Fused ring compounds” (Genentech, Inc., priority 2018, dated 2023).

How the values were obtained:
K-Ras G12C [1] = target: T1, K-Ras G12C (Homo sapiens, UniProt P01116, G12C); assay: K-Ras G12C, SOS1, Raf RBD HTRF assay for inhibition of GTP exchange; assay type: biochemical; design: K-Ras G12C (residues 2-188) and SOS1 (residues 564-1049) had N-terminal 6-His; made in house; host or cells: E. coli; conditions: 18 hours preincubation with K-Ras G12C at room temperature; SOS1-mediated GTP exchange
Procedure: K-Ras G12C, SOS1, Raf RBD Homogeneous Time Resolved Fluorescence (HTRF) Assay for Inhibition of GTP Exchange
After 18 hours at room temperature, the SOS1 GTP exchange factor (1.67 nM during exchange, 1.25 nM final) was added to initiate nucleotide exchange to GTP (200 μM during exchange, 150 μM final). The level of GTP exchange was assessed by addition of a Ras binding domain derived from C-Raf and the HTRF detection antibodies Tb-anti-FLAG and D2-anti-his (Cis-Bio) at 50 nM, 1 nM and 12.5 nM, respectively. After 2 hours, the ratio of 665 nm to 615 nm emission with 320 nm excitation was measured on an Envision plate reader (Perkin Elmer).
The final reaction volume was 20 μl in a ProxiPlate-384F Plus (Perkin Elmer), in buffer containing 20 mM HEPES, 150 mM NaCl, 1 mM MgCl2, 0.1% BSA, 0.03% Tween-20 and 1 mM DTT. […] HTRF data are presented below in Table 2.
Target sequence in this assay (P01116 2-188 isoform P01116-2 G12C): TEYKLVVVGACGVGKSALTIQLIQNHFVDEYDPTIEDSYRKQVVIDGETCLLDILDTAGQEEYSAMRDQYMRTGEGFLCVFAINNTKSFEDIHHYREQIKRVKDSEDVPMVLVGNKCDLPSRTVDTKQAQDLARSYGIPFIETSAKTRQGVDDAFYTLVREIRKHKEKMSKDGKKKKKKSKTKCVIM

K-Ras G12C [2] = target: T1, K-Ras G12C; assay: Western blot assay for in cell alkylation of K-Ras G12C (HCC1171 cells); assay type: cell-based; design: endogenous in cells; host or cells: HCC1171; conditions: 18 hours at 37° C., 7 point dose response
Procedure: Western Blot Assay for in Cell Alkylation of K-Ras G12C
HCC1171 cells were maintained in RPMI1640 supplemented with 10% FBS. Cells were plated in a 96-well plate at 20,000 cells/well and the following day compounds were added to the cells. After 18 hours at 37° C., cells were lysed in RIPA buffer (Sigma R0278) with 0.5% SDS and protease/phosphatase inhibitor cocktail. After through mixing to enable complete lysis, the lysates were cleared by centrifugation before 20 μl was transferred from each well and combined with loading buffer and reducing agent. After heating for 10 minutes at 95° C., 15 μl of each sample was loaded onto a 4-20% Tris-Glycine gel and electrophoresed at 110V for 165 minutes in SDS-PAGE running buffer. Gels were transferred to a nitrocellulose membrane, blocked for 1 hour and stained overnight at 4° C. with primary antibody against K-Ras (polyclonal Proteintech 12063-1-AP). The membrane was then washed thoroughly and counterstained with anti-rabbit IRDye 800CW (LI-COR 926-32211) for one hour at room temperature. After final washes, the membrane was imaged on a LI-COR Odyssey CLx at medium resolution. Alkylated K-Ras was visible by an electrophoretic shift from unmodified K-Ras. To quantify this affect, the LICOR software was used to draw a rectangle over alkylated and unalkylated bands for each well and measured the total fluorescent intensity (FI) in each of these bands. The following formula was then used to calculate % alkylation: FI(alkylated)/(FI(alkylated)+FI(unalkylated))*100 for each well.
A 7 point dose response curve was used to determine the IC50 for each compound. Cell alkylation data are presented below in Table 2.
Target sequence in this assay (P01116 1-188 isoform P01116-2 G12C): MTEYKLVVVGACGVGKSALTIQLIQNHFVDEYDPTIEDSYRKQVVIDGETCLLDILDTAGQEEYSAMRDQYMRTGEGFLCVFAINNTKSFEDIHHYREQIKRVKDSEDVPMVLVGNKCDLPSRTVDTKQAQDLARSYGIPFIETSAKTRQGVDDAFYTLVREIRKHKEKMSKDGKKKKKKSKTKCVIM

Structure (SMILES) | IC50 (K-Ras G12C [1]) [nM] | EC50 (K-Ras G12C [2]) [nM]
C=CC(=O)N1CCN(c2nc(OC[C@@H]3C[C@@H](F)CN3C)nc3c2CC[C@@H](c2cc(O)cc4ccccc24)C3)[C@@H](C)C1 (single isomer, unassigned) [Example 31b] | 250 | 2000
C=CC(=O)N1CCN(c2ncnc3c2C[C@H](C)[C@H](c2nc(N)cc(C)c2C(F)(F)F)C3)CC1 (single isomer, unassigned) [Example 1b] | > 50000 | 10000
C=CC(=O)N1CCN(c2nc(OC[C@@H]3CCCN3C)nc3c2C[C@H](C)[C@@H](c2cc(O)cc4ccccc24)C3)[C@@H](C)C1 (single isomer, unassigned) [Example 22a] | 20 | 100
C=C(F)C(=O)N1CCN(c2nc(OC[C@@H]3CCCN3C)nc3c2CC(C)C(c2c(F)c(N)cc(C)c2C(F)(F)F)C3)CC1CC#N (single isomer, unassigned) [Example 34a] | 8900 | > 3000
C=CC(=O)N1CCN(c2nc(OC[C@@H]3CCCN3C)nc3c2CCC(c2cc(O)cc4ccccc24)C3)CC1 (stereo partly drawn) [Example 49a, 1-[4-[7-(3-hydroxy-1-naphthyl)-2-[[(2S)-1-methylpyrrolidin-2-yl]methoxy]-5,6,7,8-tetrahydroquinazolin-4-yl]piperazin-1-yl]prop-2-en-1-one] | 23 | 170
C=CC(=O)Oc1cc(C2CCc3c(nc(OC[C@@H]4CCCN4C)nc3N3CCN(C(=O)C=C)CC3)C2)c2ccccc2c1 (stereo partly drawn) [Example 50a, 4-(4-(4-acryloylpiperazin-1-yl)-2-(((S)-1-methylpyrrolidin-2-yl)methoxy)-5,6,7,8-tetrahydroquinazolin-7-yl)naphthalen-2-yl acrylate] | 160 | 170
CN1CCC[C@H]1COc1nc2c(c(N3CCN(C(=O)/C=C/CF)[C@@H](CC#N)C3)n1)CC[C@@H](c1cc(O)cc3ccccc13)C2 (single isomer, unassigned) [Example 62e] | 660 | 450
C=CC(=O)N1CCN(c2nc(OC[C@@H]3CCCN3C)nc3c2CC[C@H](c2cc(O)cc4ccccc24)C3)C[C@@H]1CC#N (single isomer, unassigned) [Example 58b] | 130 | 1900
C=CC(=O)N1CCN(c2nc(OC[C@@H]3COC(=O)N3C)nc3c2CC[C@H](c2cc(O)cc4ccccc24)C3)[C@@H](C)C1 (single isomer, unassigned) [Example 57c] | 53 | 830
C=CC(=O)N1CCN(c2nc(OC[C@@H]3CCCN3C)nc3c2C[C@H](C)[C@@H](c2nc(N)ccc2C(F)(F)F)C3)[C@@H](C)C1 (single isomer, unassigned) [Example 41a] | 500 | 880
C=CC(=O)N1CCN(c2nc(OC[C@@H]3CCCN3C)nc3c2CCC2(CCCCC2)C3)CC1 [Example 25a, (S)-1-(4-(2′-((1-methylpyrrolidin-2-yl)methoxy)-5′,8′-dihydro-6′H-spiro[cyclohexane-1,7′-quinazolin]-4′-yl)piperazin-1-yl)prop-2-en-1-one] | 5400 | 1000
C=CC(=O)N1CCN(c2nc(OCCCN3CCOCC3)nc3c2CCC(c2cc(O)cc4ccccc24)C3)[C@@H](C)C1 (stereo partly drawn) [Example 53a, 1-((3S)-4-(7-(3-hydroxynaphthalen-1-yl)-2-(3-morpholinopropoxy)-5,6,7,8-tetrahydroquinazolin-4-yl)-3-methylpiperazin-1-yl)prop-2-en-1-one] | 22 | 230
C=CC(=O)N1CCC(C#N)(c2nc(OC[C@@H]3CCCN3C)nc3c2CCC(c2cc(O)cc4ccccc24)C3)CC1 (stereo partly drawn) [Example 7a, 4-[7-(3-hydroxy-1-naphthyl)-2-[[(2S)-1-methylpyrrolidin-2-yl]methoxy]-5,6,7,8-tetrahydroquinazolin-4-yl]-1-prop-2-enoyl-piperidine-4-carbonitrile] | 87 | 2500
C=CC(=O)N1CCN(c2ncnc3c2CC[C@H](c2nc(N)cc(C)c2C(F)(F)F)C3)CC1 [Example 26a, (S)-1-(4-(7-(6-amino-4-methyl-3-(trifluoromethyl)pyridin-2-yl)-5,6,7,8-tetrahydroquinazolin-4-yl)piperazin-1-yl)prop-2-en-1-one] | 180 | 1200
C=CC(=O)N1CCN(c2nc(OC[C@@H]3C[C@@H](F)CN3C)nc3c2C[C@H](C)[C@@H](c2c(F)c(N)cc(C)c2C(F)(F)F)C3)[C@@H](C)C1 (single isomer, unassigned) [Example 36a] | 360 | 270
C=CC(=O)N1C[C@H](C)N(c2nc(OC[C@@H]3CCCN3C)nc3c2C[C@H](C)[C@@H](c2cc(O)cc4ccccc24)C3)[C@@H](C)C1 (single isomer, unassigned) [Example 32b] | 56 | 920
CN1CCC[C@H]1COc1nc2c(c(N3CCN(C(=O)/C=C/CF)[C@H](CC#N)C3)n1)CCC(c1cc(O)cc3ccccc13)C2 (single isomer, unassigned) [Example 62d] | < 10 | 6.4
C=CC(=O)N1CCN(c2nc(OC[C@H]3COC(=O)N3C)nc3c2CC[C@H](c2cc(O)cc4ccccc24)C3)[C@@H](C)C1 (single isomer, unassigned) [Example 57d] | 45 | 880
C=CC(=O)N1CCN(c2ncnc3c2CC[C@@H](c2nc(N)cc4ccccc24)C3)CC1 (single isomer, unassigned) [Example 3a] | > 50000 | 30000
C=CC(=O)N1CCN(c2nc(OC[C@@H]3CCCN3C)nc3c2CC[C@@H](c2cc(O)cc4ccccc24)C3)C[C@H]1CC#N (single isomer, unassigned) [Example 58e] | 29 | 110
C=C(F)C(=O)N1CCN(c2nc(OC[C@@H]3CCCN3C)nc3c2C[C@H](C)[C@@H](c2c(F)c(N)cc(C)c2C(F)(F)F)C3)C[C@H]1CC#N (single isomer, unassigned) [Example 34b] | 680 | 1200
C=CC(=O)N1CCN(c2ncnc3c2CC[C@@H](c2nc(N)cc(C)c2C(F)(F)F)C3)CC1 [Example 26b, (R)-1-(4-(7-(6-amino-4-methyl-3-(trifluoromethyl)pyridin-2-yl)-5,6,7,8-tetrahydroquinazolin-4-yl)piperazin-1-yl)prop-2-en-1-one] | 4800 | 17000
C=CC(=O)N1CCN(c2nc(OC[C@@H]3CCCN3C)nc3c2CC(C)C(c2c(C)ccc4[nH]ncc24)C3)CC1 (stereo partly drawn) [Example 18a, 1-(4-(6-methyl-7-(5-methyl-1H-indazol-4-yl)-2-(((S)-1-methylpyrrolidin-2-yl)methoxy)-5,6,7,8-tetrahydroquinazolin-4-yl)piperazin-1-yl)prop-2-en-1-one] | 24 | 280
C=CC(=O)N1C[C@H](C)N(c2nc(OC[C@@H]3CCCN3C)nc3c2CCC(c2cc(O)cc4ccccc24)C3)[C@@H](C)C1 (stereo partly drawn) [Example 56a, 1-((3S,5S)-4-(7-(3-hydroxynaphthalen-1-yl)-2-(((S)-1-methylpyrrolidin-2-yl)methoxy)-5,6,7,8-tetrahydroquinazolin-4-yl)-3,5-dimethylpiperazin-1-yl)prop-2-en-1-one] | 73 | 620
CN1CCC[C@H]1COc1nc2c(c(N3CCN(C(=O)/C=C/CF)[C@@H](CC#N)C3)n1)CC[C@H](c1cc(O)cc3ccccc13)C2 (single isomer, unassigned) [Example 62c] | 73 | 1000
C=CC(=O)N1CCN(c2nc(OCC3CCC(=O)N3)nc3c2CCC(c2cc(O)cc4ccccc24)C3)[C@@H](C)C1 (stereo partly drawn) [Example 55a, 5-(((4-((S)-4-acryloyl-2-methylpiperazin-1-yl)-7-(3-hydroxynaphthalen-1-yl)-5,6,7,8-tetrahydroquinazolin-2-yl)oxy)methyl)pyrrolidin-2-one] | 1400 | 6700
C=CC(=O)N1CCN(c2ncnc3c2CC[C@@H](c2cncc4ccccc24)C3)CC1 (single isomer, unassigned) [Example 44a] | > 50000 | 1000
